Experimental data: patent US20230277452A1, “COMPOSITIONS, DEVICES AND METHODS FOR TREATING NASAL, OTIC AND OTHER TISSUE INFECTION AND/OR INFLAMMATION” (priority 2020, published 2023)

Experiments:
[1] = Recovery of force-degraded MFM spiked into placebo cream and of active cream (0.1% MFM), HPLC; assay type: physicochemical
Procedure: MFM neat and degraded materials were spiked into placebo cream (lot #2020-11-01) to investigate potential partitioning effects and peak interferences and to compare spiked and active cream samples by the procedure in Table 50 with the exception that for acid, base and peroxide degradations, the additions of HCl, NaOH and peroxide were calculated accordingly.
Percent recovery of Force-Degraded Materials Spiked into Placebo is provided in Table 51 below while recovery of active cream formulation (0.1% MFM) is provided in Table 52 below.

[2] = Storage stability: impurities/degradants by HPLC; assay type: physicochemical
Procedure: Particle size and globule size were likewise measured at the start of storage and at the one month or three month interval, respectively, according to USP 729. Impurities were also measured at the start of storage and at the one month or three month intervals, respectively. Viscosity was also measured at the start of storage and at the one month or three month intervals, respectively. Osmolality was also measured at the start of storage and at the one month or three month intervals, respectively, according to USP 785. Briefly, to measure betamethasone dipropionate and betamethasone content as well as impurities/degradants, HPLC was used. […] The 50 mL tubes were then removed from the heat and vortex mixed again for 30 seconds. If necessary, the tubes were returned to the water bath to prevent cooling. […] The tubes were then centrifuged for 30 minutes at 12,000 RPM and supernatant was transferred to a HPLC vial for analysis. The HPLC system was rinsed well with 50:50 acetonitrile:water to remove buffer salts after each run. […] HPLC was run using a Hypersil ODS 10×30 mm, 3 μm column as the Guard Column and a Hypersil ODS 3×150 mm, 3 μm column as the Analytical Column. The column temperature was maintained at 35° C. with a runtime of 45 minutes, a flow rate of 0.5 mL/minute, an injection volume of 3 μL, an autosampler temperature of 30° C., and using a 254 nm (UV absorbance) detector and collecting PDA from 200 nm to 400 nm for identification testing. […] Mobile Phase B was prepared as 88:12 methanol:acetonitrile. […] All mobile phase solutions were mixed well and degassed prior to use. […] A Working Standard Solution was prepared from 3.0 mL of the IS Stock Solution and 8.0 mL of the BD Stock in a 50 mL volumetric flask to which 150 mg of benzyl alcohol reference standard was added and diluent added to volume followed by mixing well. […] System suitability requirements included those in Table 38. The Ratio RT (RRT) in Table 39 can be calculated from the ratio of the sample retention time to the mean retention time of the bracketing standards.

[3] = stored at 25° C./60% RH, Initial, Mean
[4] = stored at 25° C./60% RH, Initial, Prep #2
[5] = stored at 30° C./65% RH, Initial, Mean
[6] = stored at 30° C./65% RH, Initial, Prep #2
[7] = stored at 40° C./75% RH, Initial, Mean
[8] = stored at 40° C./75% RH, Initial, Prep #2
[9] = stored at 25° C./60% RH, 1 Month, Mean
[10] = stored at 25° C./60% RH, 1 Month, Prep #1
[11] = stored at 25° C./60% RH, 1 Month, Prep #2
[12] = stored at 25° C./60% RH, 3 Month, Mean
[13] = stored at 25° C./60% RH, 3 Month, Prep #1
[14] = stored at 25° C./60% RH, 3 Month, Prep #2
[15] = stored at 30° C./65% RH, 1 Month, Mean
[16] = stored at 30° C./65% RH, 1 Month, Prep #1
[17] = stored at 30° C./65% RH, 1 Month, Prep #2
[18] = stored at 30° C./65% RH, 3 Month, Mean
[19] = stored at 30° C./65% RH, 3 Month, Prep #1
[20] = stored at 30° C./65% RH, 3 Month, Prep #2
[21] = stored at 40° C./75% RH, 1 Month, Mean
[22] = stored at 40° C./75% RH, 1 Month, Prep #1
[23] = stored at 40° C./75% RH, 1 Month, Prep #2
[24] = stored at 40° C./75% RH, 3 Month, Mean
[25] = stored at 40° C./75% RH, 3 Month, Prep #1
[26] = stored at 40° C./75% RH, 3 Month, Prep #2

Impurity (% of related substances) in Betamethasone Dipropionate Cream Formulation [2, 3] | Impurity (% of related substances) in Betamethasone Dipropionate Cream Formulation [2, 4] | Impurity (% of related substances) in Betamethasone Dipropionate Cream Formulation [2, 5] | Impurity (% of related substances) in Betamethasone Dipropionate Cream Formulation [2, 6] | Impurity (% of related substances) in Betamethasone Dipropionate Cream Formulation [2, 7] | Impurity (% of related substances) in Betamethasone Dipropionate Cream Formulation [2, 8] | Impurity (% of related substances) in Betamethasone Dipropionate Cream Formulation [2, 9] | Impurity (% of related substances) in Betamethasone Dipropionate Cream Formulation [2, 10] | Impurity (% of related substances) in Betamethasone Dipropionate Cream Formulation [2, 11] | Impurity (% of related substances) in Betamethasone Dipropionate Cream Formulation [2, 12] | Impurity (% of related substances) in Betamethasone Dipropionate Cream Formulation [2, 13] | Impurity (% of related substances) in Betamethasone Dipropionate Cream Formulation [2, 14] | Impurity (% of related substances) in Betamethasone Dipropionate Cream Formulation [2, 15] | Impurity (% of related substances) in Betamethasone Dipropionate Cream Formulation [2, 16] | Impurity (% of related substances) in Betamethasone Dipropionate Cream Formulation [2, 17] | Impurity (% of related substances) in Betamethasone Dipropionate Cream Formulation [2, 18] | Impurity (% of related substances) in Betamethasone Dipropionate Cream Formulation [2, 19] | Impurity (% of related substances) in Betamethasone Dipropionate Cream Formulation [2, 20] | Impurity (% of related substances) in Betamethasone Dipropionate Cream Formulation [2, 21] | Impurity (% of related substances) in Betamethasone Dipropionate Cream Formulation [2, 22] | Structure (SMILES) | further results
 |  |  |  |  |  |  |  |  |  |  |  |  |  |  |  |  |  |  |  | C[C@@H]1C[C@H]2[C@@H]3CCC4=CC(=O)C=C[C@]4(C)[C@@]3(Cl)[C@@H](O)C[C@]2(C)[C@@]1(OC(=O)c1ccco1)C(=O)CCl.O [Mometasone Furoate Momohydrate] | Difference with Placebo (neat vs spiked recovery) ([1]; 0.1N HC1 (1 hour)): 5.23%; Difference with Placebo (neat vs spiked recovery) ([1]; 0.1N NaOH (1 hour)): 0.13%; Difference with Placebo (neat vs spiked recovery) ([1]; 3% H2O2 (1 hour)): 5.20%; Difference with Placebo (neat vs spiked recovery) ([1]; 60° C. (5 days)): 4.96%; Difference with Placebo (neat vs spiked recovery) ([1]; Control (neat MFM)): 5.87%; Difference with Placebo (neat vs spiked recovery) ([1]; White light (5 days)): 5.29%
0.12% | 0.12% | 0.12% | 0.12% | 0.12% | 0.12% |  |  |  |  |  |  |  |  |  |  |  |  |  |  | CCC(=O)OCC(=O)[C@@]1(OC(=O)CC)[C@@H](C)C[C@H]2[C@@H]3CC(Br)C4=CC(=O)C=C[C@]4(C)[C@@]3(F)[C@@H](O)C[C@@]21C (stereo partly drawn) [Lot 9] | 
 |  |  |  |  |  | 0.09% | 0.08% | 0.10% | 0.22% | 0.19% | 0.25% | 0.15% | 0.13% | 0.17% | 0.50% | 0.44% | 0.56% | 0.53% | 0.48% | CCC(=O)OCC(=O)C1(O)C(C)CC2C3CCC4=CC(=O)C=CC4(C)C3(F)C(O)CC21C (stereo not drawn) [Lot 4] | Impurity (% of related substances) in Betamethasone Dipropionate Cream Formulation [2, 23]: 0.58%; Impurity (% of related substances) in Betamethasone Dipropionate Cream Formulation [2, 24]: 1.99%; Impurity (% of related substances) in Betamethasone Dipropionate Cream Formulation [2, 25]: 1.86%; Impurity (% of related substances) in Betamethasone Dipropionate Cream Formulation [2, 26]: 2.12%
0.18% | 0.20% | 0.18% | 0.20% | 0.18% | 0.20% | 0.34% | 0.31% | 0.37% | 0.49% | 0.43% | 0.54% | 0.43% | 0.38% | 0.48% | 0.73% | 0.66% | 0.79% | 0.64% | 0.59% | CCC(=O)OC1(C(=O)CO)C(C)CC2C3CCC4=CC(=O)C=CC4(C)C3(F)C(O)CC21C (stereo not drawn) [Lot 5] | Impurity (% of related substances) in Betamethasone Dipropionate Cream Formulation ([2]; stored at 25° C./60% RH, Initial, Prep #1): 0.16%; Impurity (% of related substances) in Betamethasone Dipropionate Cream Formulation ([2]; stored at 30° C./65% RH, Initial, Prep #1): 0.16%; Impurity (% of related substances) in Betamethasone Dipropionate Cream Formulation [2, 23]: 0.68%; Impurity (% of related substances) in Betamethasone Dipropionate Cream Formulation [2, 24]: 0.93%; Impurity (% of related substances) in Betamethasone Dipropionate Cream Formulation [2, 25]: 0.86%; Impurity (% of related substances) in Betamethasone Dipropionate Cream Formulation [2, 26]: 0.99%; Impurity (% of related substances) in Betamethasone Dipropionate Cream Formulation ([2]; stored at 40° C./75% RH, Initial, Prep #1): 0.16%
